These results are taken from patent US4569937A, “Analgesic mixture of oxycodone and ibuprofen” (priority 1985, dated 1986).

Read-outs that look alike come from different tables or passages of the source.

In this test the test system is phenyl-p-benzoquinone induced writhing in mice. It is filed as in vivo, mice (male CF1). Conditions: oral, N=43 mice/dose; for % MICE BLOCKED: 5 min.

As to `COc1ccc2c3c1O[C@H]1C(=O)CC[C@@]4(O)[C@@H](C2)N(C)CC[C@]314` [Oxycodone], the “% MICE BLOCKED” value (oxycodone HCl 0.36 mg/kg) amounted to 11.6%; the “% MICE BLOCKED” value (oxycodone HCl 0.72 mg/kg) is on record as 4.7%; the “% MICE BLOCKED” value (oxycodone HCl 1.44 mg/kg) came to 39.5%; the “% MICE BLOCKED” value (oxycodone HCl 2.88 mg/kg) was 81.4%; the “% MICE BLOCKED” value (oxycodone HCl 5.76 mg/kg) was 95.3%. In addition, the “ED50 AT 5 MIN, Oxycodone (95% Confidence Limits)” value (oxycodone HCl part of the ED50 dose (alone or at fixed ratio oxycodone:ibuprofen)) is on record as 1.88 mg/kg.

On to `CC(C)Cc1ccc(C(C)C(=O)O)cc1` (stereo not drawn) [Ibuprofen, α-methyl-4-(2-methylpropyl)benzeneacetic acid], for which the “% MICE BLOCKED” value (ibuprofen 2.25 mg/kg) was 7.0%, the “% MICE BLOCKED” value (ibuprofen 4.49 mg/kg) stood at 11.6%, the “% MICE BLOCKED” value (ibuprofen 8.98 mg/kg) was determined as 20.1% and the “% MICE BLOCKED” value (ibuprofen 17.96 mg/kg) is 62.8%. For the setting “ibuprofen part of the ED50 dose (alone or at fixed ratio oxycodone:ibuprofen)”, the “ED50 AT 5 MIN, Ibuprofen (95% Confidence Limits)” value was 15.8 mg/kg.
